Laboratory results reported in US20100062052A1, “PEPTIDE-BASED COMPOUNDS AS NEW INHIBITORS OF METALLOECTOPEPTIDASES, COMPOSITIONS COMPRISING SAID COMPOUNDS AND THEIR PHARMACEUTICAL AND COSMETIC USES” (GREENPHARMA, priority 2007, published 2010).
Residues, ends and D or L forms follow the SMILES beside them. *: point of attachment. Palmitoyl = CCCCCCCCCCCCCCCC(=O)*

Assay: Solubility in aqueous Tris-buffer
Type: physicochemical
Details: diluted from ethanol stock, read-out: solubility limit in aqueous Tris-buffer conditions

`CCCCCCCCCCCCCCCC(=O)N[C@@H](CCC(N)=O)C(=O)N[C@@H](CCCNC(=N)N)C(=O)N[C@@H](Cc1ccccc1)C(=O)N[C@@H](CO)C(=O)N[C@@H](CCCNC(=N)N)C(N)=O` [Pal-QRFSR-NH2, palmitoyl-QRFSR-NH2] (Palmitoyl-QRFSR-NH2) showed a solubility of at most 70 µM.
